Measured values: the NIST ThermoML archive (doi:10.1016/j.jct.2016.01.016)
± gives the expanded uncertainty stated by the source.

Assays:
[1] = for mass density: 101.33 kPa
[2] = Molar enthalpy of transition or fusion; conditions: DSC

NC(=O)CN1CCCC1=O [2-oxo-1-pyrrolidineacetamide]
[1]
Conditions	Triple point temperature [K]	mass density [kg/m3]	molar volume [m3/mol]
300 K, Crystal 2, X-ray diffraction	–	1373 ± 2	0.0001036 ± 4.9e-07
310 K, Crystal 2, X-ray diffraction	–	–	0.0001031 ± 4.9e-07
320 K, Crystal 2, X-ray diffraction	–	–	0.0001039 ± 4.9e-07
330 K, Crystal 2, X-ray diffraction	–	–	0.0001036 ± 4.9e-07
340 K, Crystal 2, X-ray diffraction	–	–	0.0001042 ± 4.9e-07
350 K, Crystal 2, X-ray diffraction	–	–	0.0001042 ± 4.9e-07
360 K, Crystal 2, X-ray diffraction	–	–	0.0001047 ± 4.9e-07
370 K, Crystal 1, X-ray diffraction	–	–	0.0001104 ± 4.9e-07
370 K, Crystal 2, X-ray diffraction	–	–	0.0001049 ± 4.9e-07
375 K, Crystal 1, X-ray diffraction	–	–	0.0001105 ± 4.9e-07
380 K, Crystal 1, X-ray diffraction	–	–	0.0001106 ± 4.9e-07
385 K, Crystal 1, X-ray diffraction	–	–	0.0001108 ± 4.9e-07
390 K, Crystal 1, X-ray diffraction	–	–	0.0001108 ± 4.9e-07
395 K, Crystal 1, X-ray diffraction	–	–	0.000111 ± 4.9e-07
400 K, Crystal 1, X-ray diffraction	–	1281 ± 2	0.000111 ± 4.9e-07
405 K, Crystal 1, X-ray diffraction	–	–	0.0001112 ± 4.9e-07
410 K, Crystal 1, X-ray diffraction	–	–	0.0001112 ± 4.9e-07
Metastable crystal, DSC	365.05 ± 5.1	–	–
Metastable crystal, X-ray diffraction	360.15 ± 6	–	–

[1]
Conditions	mass density [kg/m3]	molar volume [m3/mol]
300 K, Metastable crystal, X-ray diffraction	1365 ± 2	0.0001042 ± 4.9e-07
310 K, Metastable crystal, X-ray diffraction	–	0.0001044 ± 4.9e-07
320 K, Metastable crystal, X-ray diffraction	–	0.0001045 ± 4.9e-07
330 K, Metastable crystal, X-ray diffraction	–	0.0001049 ± 4.9e-07
340 K, Metastable crystal, X-ray diffraction	–	0.0001051 ± 4.9e-07
350 K, Metastable crystal, X-ray diffraction	–	0.0001054 ± 4.9e-07
355 K, Metastable crystal, X-ray diffraction	–	0.0001054 ± 4.9e-07
360 K, Metastable crystal, X-ray diffraction	–	0.0001055 ± 4.9e-07
423 K, Liquid, Vibrating tube method	–	0.0001228 ± 4.4e-07
428 K, Liquid, Vibrating tube method	–	0.0001232 ± 4.4e-07
433 K, Liquid, Vibrating tube method	–	0.0001235 ± 4.4e-07
438 K, Liquid, Vibrating tube method	–	0.0001239 ± 4.4e-07
443 K, Liquid, Vibrating tube method	–	0.0001241 ± 4.4e-07
448 K, Liquid, Vibrating tube method	–	0.0001245 ± 4.4e-07
453 K, Liquid, Vibrating tube method	–	0.0001248 ± 4.4e-07
458 K, Liquid, Vibrating tube method	–	0.0001252 ± 4.4e-07
463 K, Liquid, Vibrating tube method	–	0.0001255 ± 4.4e-07
468 K, Liquid, Vibrating tube method	–	0.0001259 ± 4.4e-07
473 K, Liquid, Vibrating tube method	–	0.0001262 ± 4.4e-07

Conditions	Molar enthalpy of transition or fusion, Crystal 1 [kJ/mol]	Molar enthalpy of transition or fusion, Metastable crystal [kJ/mol]	Triple point temperature, Crystal 1, DSC [K]	Triple point temperature, Crystal 2, X-ray diffraction [K]
[1]	–	–	422.95 ± 5.1	370.15 ± 6
[2]	26.6 ± 0.85	3.53 ± 0.87	–	–
